The structures appear in SMILES notation. Toxic doses and inconclusive results are not listed.

For this experiment, the system named is P388 leukemia ip, CD2F1 mice, survival T/C. Briefly: NCI In Vivo Anticancer Drug Screen. Data for tumor model P388 Leukemia (intraperitoneal) in CD2F1 (CDF1) mice. The conditions noted are these: endpoint: median survival time, higher = longer survival. Summed up: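 Mice carrying the transplanted tumor received test compound or vehicle. Survival was recorded in each group, and the value is the treated-group measurement divided by that of the vehicle-treated control group.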

Setting [1] is: dose: 50.0 mg/kg/injection, schedule: Q01DX009 (ip), vehicle: saline.
[2] abbreviates: dose: 200.0 mg/kg/injection, schedule: Q01DX009 (ip), vehicle: saline.
[3] abbreviates: dose: 3.13 mg/kg/injection, schedule: Q01DX009 (ip), vehicle: water.
Setting [4] is: dose: 12.5 mg/kg/injection, schedule: Q01DX009 (ip), vehicle: water.
[5] abbreviates: dose: 25.0 mg/kg/injection, schedule: Q01DX009 (ip), vehicle: water.
Setting [6] is: dose: 50.0 mg/kg/injection, schedule: Q01DX005 (ip), vehicle: Klucel (hydroxypropylcellulose) (HPC).
Setting [7] is: dose: 100.0 mg/kg/injection, schedule: Q01DX005 (ip), vehicle: Klucel (hydroxypropylcellulose) (HPC).
[8] abbreviates: dose: 200.0 mg/kg/injection, schedule: Q01DX005 (ip), vehicle: Klucel (hydroxypropylcellulose) (HPC).
[9] abbreviates: dose: 60.0 mg/kg/injection, schedule: Q01DX005 (ip), vehicle: saline with Tween-80.
Where [10] appears, read: dose: 120.0 mg/kg/injection, schedule: Q01DX005 (ip), vehicle: saline with Tween-80.

Take `Cc1cccnc1-n1c(N)cc(=O)[nH]c1=S`: the T/C (dose: 50.0 mg/kg/injection, schedule: Q01DX001 (ip), vehicle: saline with Tween-80) is 100 % of control; the T/C (dose: 100.0 mg/kg/injection, schedule: Q01DX001 (ip), vehicle: saline with Tween-80) is 100 % of control; the T/C (dose: 200.0 mg/kg/injection, schedule: Q01DX001 (ip), vehicle: saline with Tween-80) is 86 % of control.
Regarding `NNC(=O)C(NC=O)C(N)=O` (stereo not given), the T/C was 107 % of control (dose: 12.5 mg/kg/injection, schedule: Q01DX009 (ip), vehicle: saline with Tween-80); 100 % of control (dose: 25.0 mg/kg/injection, schedule: Q01DX009 (ip), vehicle: saline with Tween-80); 98 % of control (dose: 50.0 mg/kg/injection, schedule: Q01DX009 (ip), vehicle: saline with Tween-80); 88 % of control under setting [1]; 92 % of control under setting [2].
As for `COc1ccc(Br)cc1/C=N/N=C/c1cc(Br)ccc1OC`, the T/C (dose: 100.0 mg/kg/injection, schedule: Q04DX003 (ip), vehicle: saline with Tween-80) is 90 % of control; the T/C (dose: 200.0 mg/kg/injection, schedule: Q04DX003 (ip), vehicle: saline with Tween-80) was 86 % of control; the T/C (dose: 400.0 mg/kg/injection, schedule: Q04DX003 (ip), vehicle: saline with Tween-80) was 86 % of control.
On to `COc1cccc2c1C(=O)c1c(O)c3c(c(O)c1C2=O)C[C@@](O)(C(C)=O)C[C@@H]3OC(=O)CCN`, for which the T/C was 112 % of control (dose: 0.78 mg/kg/injection, schedule: Q01DX009 (ip), vehicle: water); 110 % of control (dose: 1.56 mg/kg/injection, schedule: Q01DX009 (ip), vehicle: water); 118 % of control under setting [3]; 123 % of control (dose: 8.33 mg/kg/injection, schedule: Q01DX009 (ip), vehicle: water); 120 % of control under setting [4]; 101 % of control (dose: 18.8 mg/kg/injection, schedule: Q01DX009 (ip), vehicle: water). In addition, the T/C under setting [5] was 118 % of control.
As for `CN(C)CCCCNc1c2c(nc3c(Cl)cccc13)CCC2`, the T/C was 99 % of control (dose: 50.0 mg/kg/injection, schedule: Q01DX005 (ip), vehicle: saline with Tween-80); 105 % of control (dose: 100.0 mg/kg/injection, schedule: Q01DX005 (ip), vehicle: saline with Tween-80); 99 % of control (dose: 200.0 mg/kg/injection, schedule: Q01DX005 (ip), vehicle: saline with Tween-80).
`[N-]=[N+]=NC1(N=[N+]=[N-])C(=O)Nc2ccccc2C1=O` (stereo not given): the T/C under setting [6] is 93 % of control, the T/C under setting [7] was 103 % of control and the T/C under setting [8] is 107 % of control.
Regarding `CN(C)C(=Nc1ccccc1)OC1=C/C(=C2/C=C(OC(=Nc3ccccc3)N(C)C)N=C2OC(=Nc2ccccc2)N(C)C)C(OC(=Nc2ccccc2)N(C)C)=N1`, the T/C by setting is: (dose: 100.0 mg/kg/injection, schedule: Q01DX001 (ip), vehicle: Klucel (hydroxypropylcellulose) (HPC)) 106 % of control; (dose: 200.0 mg/kg/injection, schedule: Q01DX001 (ip), vehicle: Klucel (hydroxypropylcellulose) (HPC)) 106 % of control; (dose: 400.0 mg/kg/injection, schedule: Q01DX001 (ip), vehicle: Klucel (hydroxypropylcellulose) (HPC)) 104 % of control.
In the case of `[N-]=[N+]=Nc1nnc(-c2ccccc2)c(=O)[nH]1`, the T/C (dose: 100.0 mg/kg/injection, schedule: Q04DX002 (ip), vehicle: saline) was 101 % of control; the T/C (dose: 200.0 mg/kg/injection, schedule: Q04DX002 (ip), vehicle: saline) was 101 % of control; the T/C (dose: 400.0 mg/kg/injection, schedule: Q04DX002 (ip), vehicle: saline) was 96 % of control.
Regarding `O=C(O)Cn1nnc2ccccc21`, the T/C by setting is: (dose: 100.0 mg/kg/injection, schedule: Q01DX009 (ip), vehicle: saline) 101 % of control; under setting [2], 96 % of control.
In the case of `O=C(O)C1C(C(=O)O)C2(Cl)C(Cl)=C(Cl)C1(Cl)C2(Cl)Cl.[Fe]` (stereo not given), the T/C by setting is: (dose: 6.25 mg/kg/injection, schedule: Q01DX001 (ip), vehicle: saline with Tween-80) 100 % of control; (dose: 12.5 mg/kg/injection, schedule: Q01DX001 (ip), vehicle: saline with Tween-80) 104 % of control; (dose: 25.0 mg/kg/injection, schedule: Q01DX001 (ip), vehicle: saline with Tween-80) 109 % of control.
As for `COc1ccc(C2(c3ccc(OC)cc3)N=C(N(C)C)NC2=O)cc1`, the T/C is, setting by setting: (dose: 50.0 mg/kg/injection, schedule: Q04DX002 (ip), vehicle: saline with Tween-80) 102 % of control; (dose: 100.0 mg/kg/injection, schedule: Q04DX002 (ip), vehicle: saline with Tween-80) 97 % of control; (dose: 200.0 mg/kg/injection, schedule: Q04DX002 (ip), vehicle: saline with Tween-80) 94 % of control.
Turning to `[NH-]C(CO)C(=O)O.[NH-]C(CO)C(=O)O.[Pt+2]` (stereo not given), the T/C under setting [3] is 91 % of control; the T/C (dose: 6.25 mg/kg/injection, schedule: Q01DX009 (ip), vehicle: water) is 91 % of control; the T/C under setting [4] was 97 % of control; the T/C under setting [5] is 106 % of control; the T/C (dose: 50.0 mg/kg/injection, schedule: Q01DX009 (ip), vehicle: water) was 115 % of control; the T/C (dose: 100.0 mg/kg/injection, schedule: Q01DX009 (ip), vehicle: water) is 115 % of control.
Consider `CCN(CC)CCCOC(=O)N(Cc1ccc(Cl)cc1)C1CC1`, for which the T/C is 108 % of control (dose: 25.0 mg/kg/injection, schedule: Q01DX009 (ip), vehicle: saline + Tween-80 + alcohol); 108 % of control (dose: 50.0 mg/kg/injection, schedule: Q01DX009 (ip), vehicle: saline + Tween-80 + alcohol); 110 % of control (dose: 100.0 mg/kg/injection, schedule: Q01DX009 (ip), vehicle: saline + Tween-80 + alcohol).
Turning to `CCN(CC)CCNc1ccc([N+](=O)[O-])c2sc3ccccc3c(=O)c12`, the T/C by setting is: (dose: 6.25 mg/kg/injection, schedule: Q01DX009 (ip), vehicle: saline) 104 % of control; (dose: 12.5 mg/kg/injection, schedule: Q01DX009 (ip), vehicle: saline) 112 % of control; (dose: 33.0 mg/kg/injection, schedule: Q01DX009 (ip), vehicle: saline) 180 % of control; under setting [1], 220 % of control; (dose: 75.0 mg/kg/injection, schedule: Q01DX009 (ip), vehicle: saline) 115 % of control; (dose: 100.0 mg/kg/injection, schedule: Q01DX009 (ip), vehicle: saline with Tween-80) 158 % of control.
In the case of `COC(=O)C(=O)C(C(=O)C=C(C)C)c1nc2n(c1O)C(=N)N=N2` (stereo not given), the T/C by setting is: (dose: 60.0 mg/kg/injection, schedule: Q01DX005 (ip), vehicle: saline) 116 % of control; (dose: 120.0 mg/kg/injection, schedule: Q01DX005 (ip), vehicle: saline) 107 % of control; (dose: 240.0 mg/kg/injection, schedule: Q01DX005 (ip), vehicle: saline) 104 % of control.
Regarding `O=C(O)CCSCCCCCCCCCCCCSCCC(=O)O`, the T/C under setting [6] is 95 % of control, the T/C under setting [7] is 89 % of control and the T/C under setting [8] was 87 % of control.
For `CCc1ccc(/C=C/c2ccc(O)c3ncccc23)[n+](C)c1`, the T/C is, setting by setting: (dose: 4.0 mg/kg/injection, schedule: Q04DX003 (ip), vehicle: saline) 100 % of control; (dose: 8.0 mg/kg/injection, schedule: Q04DX003 (ip), vehicle: saline) 104 % of control; (dose: 16.0 mg/kg/injection, schedule: Q04DX003 (ip), vehicle: saline) 118 % of control.
Take `O=C1c2ccccc2NC2(C(=O)Nc3ccccc32)N1N1CCOCC1` (stereo not given): the T/C (dose: 12.5 mg/kg/injection, schedule: Q01DX005 (ip), vehicle: Klucel (hydroxypropylcellulose) (HPC)) was 100 % of control; the T/C (dose: 25.0 mg/kg/injection, schedule: Q01DX005 (ip), vehicle: Klucel (hydroxypropylcellulose) (HPC)) was 100 % of control; the T/C under setting [6] was 101 % of control.
As for `O=C(Cc1nc2ccccc2s1)Nc1ccc2ccccc2c1`, the T/C reads like this: under setting [9], 107 % of control; under setting [10], 106 % of control.
As for `Cc1onc(-c2c(F)cccc2Cl)c1-c1ncc(-c2ccc(Br)cc2)o1`, the T/C is 100 % of control under setting [9]; 104 % of control under setting [10]; 101 % of control (dose: 240.0 mg/kg/injection, schedule: Q01DX005 (ip), vehicle: saline with Tween-80).

Source of the values: PubChem BioAssay AID330 (DTP/NCI, 2004).
